Assays:
[1] = target: T1, rat adrenergic α1B receptor (Rattus norvegicus, UniProt P15823); assay: Radioligand binding, adrenergic α1B receptor ([3H]Prazosin); settings: 0.1 μM compound, Wistar rat liver, read-out: Percentage inhibition of ligand binding, Adrenergic α1B
T1 construct: rat adrenergic α1B receptor obtained from Wistar Rat liver; from tissue; host or cells: Wistar rat liver
T1 sequence (P15823 1-515): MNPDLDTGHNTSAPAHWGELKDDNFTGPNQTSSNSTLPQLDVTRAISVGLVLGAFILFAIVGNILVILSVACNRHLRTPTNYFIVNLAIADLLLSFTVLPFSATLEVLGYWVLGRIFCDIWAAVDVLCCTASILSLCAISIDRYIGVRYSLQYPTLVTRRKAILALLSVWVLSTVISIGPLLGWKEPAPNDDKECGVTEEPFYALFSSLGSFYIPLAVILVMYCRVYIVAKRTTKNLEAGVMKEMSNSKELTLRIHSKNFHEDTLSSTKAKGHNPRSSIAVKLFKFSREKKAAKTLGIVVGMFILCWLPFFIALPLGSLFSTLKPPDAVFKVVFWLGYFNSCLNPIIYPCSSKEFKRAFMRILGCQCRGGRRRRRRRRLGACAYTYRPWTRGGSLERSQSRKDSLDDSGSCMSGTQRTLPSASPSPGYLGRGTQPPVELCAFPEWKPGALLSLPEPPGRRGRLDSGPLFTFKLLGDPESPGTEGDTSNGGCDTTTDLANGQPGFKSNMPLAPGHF
Protocol: To evaluate in radioligand binding assays the activity of compounds, rat adrenergic α1B receptor obtained from Wistar Rat liver (Garcia-S' ainz, J. et al, Biochem. Biophys. Res. Commun. 186:760, 1992; Michel, A. et al, Br. J. Pharmacol. 98:883, 1989) in a modified Tris-HCl buffer (50 mM Tris-HCl buffer, pH 7.4, 0.5 mM EDTA) was used. Compounds were incubated with 0.25 nM [^3H]Prazosin for 60 min at […]. Non-specific binding was estimated in the presence of 10 μM phentolamine. Receptor proteins were filtered and washed, the filters were then counted to determine [^3H]Prazosin specifically bound. Compounds were screened at 1 μM or lower, using 1% DMSO as vehicle. Compounds were tested in this biochemical assay and percent inhibition of specific binding was determined. Biochemical assay results are presented as the percent inhibition of specific binding in Table 2.

[2] = target: T2, human recombinant adrenergic α2B receptor (Homo sapiens, UniProt P18089); assay: Radioligand binding, adrenergic α2B receptor ([3H]Rauwolscine); settings: 0.1 μM compound, CHO-K1 cells, read-out: Percentage inhibition of ligand binding, Adrenergic α2B
T2 construct: expressed in transfected cells; host or cells: CHO-K1
T2 sequence (P18089 1-450): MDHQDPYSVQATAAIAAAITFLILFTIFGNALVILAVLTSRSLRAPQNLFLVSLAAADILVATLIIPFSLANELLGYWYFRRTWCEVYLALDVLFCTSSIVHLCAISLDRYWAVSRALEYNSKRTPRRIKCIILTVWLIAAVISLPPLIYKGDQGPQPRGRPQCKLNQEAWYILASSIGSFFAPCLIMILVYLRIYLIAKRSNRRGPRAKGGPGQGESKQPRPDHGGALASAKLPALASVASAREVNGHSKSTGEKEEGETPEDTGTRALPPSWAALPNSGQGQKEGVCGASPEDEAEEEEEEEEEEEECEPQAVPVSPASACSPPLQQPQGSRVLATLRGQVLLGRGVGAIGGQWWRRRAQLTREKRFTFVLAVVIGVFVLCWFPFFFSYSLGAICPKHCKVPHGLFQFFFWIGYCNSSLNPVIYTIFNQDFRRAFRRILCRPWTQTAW
Protocol: To evaluate in radioligand binding assays the activity of compounds, human recombinant adrenergic α2B receptor expressed in Chinese hamster ovary (CHO) K1 cells (Uhlen, S. et al, Eur. J. Pharmacol. 343(1):93, 1998) in a modified Tris-HCl buffer (50 mM Tris-HCl, pH 7.4, 12.5 mM MgCl2, 1 mM EDTA, 0.2% BSA) was used. Compounds were incubated with 2.5 nM [^3H]Rauwolscine for 60 min at 25° C. Non-specific binding was estimated in the presence of 10 μM Prazosin. Receptor proteins were filtered and washed, the filters were then counted to determine [^3H]Rauwolscine specifically bound. Compounds were screened at 1 μM or lower, using 1% DMSO as vehicle. Compounds were tested in this biochemical assay and percent inhibition of specific binding was determined. Biochemical assay results are presented as the percent inhibition of specific binding in Table 2.

[3] = target: T3, human recombinant adrenergic α1D receptor (Homo sapiens, UniProt P25100); assay: Radioligand binding, adrenergic α1D receptor ([3H]Prazosin); settings: 0.1 μM compound; HEK-293 cells; 0.6 nM [3H]Prazosin; read-out: Percentage inhibition of ligand binding, Adrenergic α1D
T3 construct: expressed in transfected cells; host or cells: HEK-293
T3 sequence (P25100 1-572): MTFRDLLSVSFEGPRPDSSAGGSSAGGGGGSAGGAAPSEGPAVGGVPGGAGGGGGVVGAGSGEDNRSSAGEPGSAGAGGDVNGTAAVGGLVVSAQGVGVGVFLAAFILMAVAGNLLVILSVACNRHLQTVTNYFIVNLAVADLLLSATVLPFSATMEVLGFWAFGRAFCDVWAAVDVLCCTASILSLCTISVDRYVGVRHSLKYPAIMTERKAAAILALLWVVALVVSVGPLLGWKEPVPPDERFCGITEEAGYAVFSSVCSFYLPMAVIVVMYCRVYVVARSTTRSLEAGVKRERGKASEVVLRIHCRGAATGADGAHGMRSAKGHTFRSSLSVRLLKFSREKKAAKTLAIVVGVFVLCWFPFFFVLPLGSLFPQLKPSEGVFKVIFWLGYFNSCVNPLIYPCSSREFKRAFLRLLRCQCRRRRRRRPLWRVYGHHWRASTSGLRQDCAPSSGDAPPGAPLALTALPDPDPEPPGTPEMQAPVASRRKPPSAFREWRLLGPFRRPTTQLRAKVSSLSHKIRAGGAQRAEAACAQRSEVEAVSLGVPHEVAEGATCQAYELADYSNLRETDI
Protocol: Compounds were incubated with 0.6 nM [3H]Prazosin for 60 min at 25° C. Non-specific binding was estimated in the presence of 10 μM phentolamine. Receptor proteins were filtered and washed, the filters were then counted to determine [3H]Prazosin specifically bound. Compounds were screened at 1 μM or lower, using 1% DMSO as vehicle. Biochemical assay results are presented as the percent inhibition of specific binding in Table 2.

[4] = target: T4, human recombinant adrenergic α2A receptor (Homo sapiens, UniProt P08913); assay: Radioligand binding, adrenergic α2A receptor ([3H]MK-912); settings: 0.1 μM compound; Sf9 cells; 1 nM [3H]MK-912; read-out: Percentage inhibition of ligand binding, Adrenergic α2A
T4 construct: expressed in transfected cells; host or cells: insect Sf9 cells
T4 sequence (P08913 1-465): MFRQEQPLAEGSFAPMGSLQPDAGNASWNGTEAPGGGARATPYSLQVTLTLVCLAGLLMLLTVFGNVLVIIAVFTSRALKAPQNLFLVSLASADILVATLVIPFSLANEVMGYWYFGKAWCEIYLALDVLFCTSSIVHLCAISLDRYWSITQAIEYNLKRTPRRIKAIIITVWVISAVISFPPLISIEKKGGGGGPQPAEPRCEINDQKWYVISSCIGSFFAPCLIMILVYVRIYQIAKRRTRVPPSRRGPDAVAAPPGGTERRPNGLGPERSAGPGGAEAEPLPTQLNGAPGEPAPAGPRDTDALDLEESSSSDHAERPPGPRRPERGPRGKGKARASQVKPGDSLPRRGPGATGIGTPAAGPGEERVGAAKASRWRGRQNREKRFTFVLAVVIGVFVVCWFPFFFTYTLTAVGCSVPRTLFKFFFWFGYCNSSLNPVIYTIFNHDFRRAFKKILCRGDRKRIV
Protocol: To evaluate in radioligand binding assays the activity of compounds, human recombinant adrenergic α2A receptor expressed in insect Sf9 cells (Uhlen, S. et al, J. Pharmacol. Exp. Ther. 271:1558, 1994) in a modified Tris-HCl buffer (50 mM Tris-HCl, pH 7.4, 12.5 mM MgCl2, 2 mM EDTA) was used. Compounds were incubated with 1 nM [^3H]MK-912 for 60 min at 25° C. MK912 is (2S-trans)-1,3,4,5′,6,6′,7,12b-octahydro-1′,3′-dimethyl-spiro[2H-benzofuro[2,3-a]quinolizine-2,4′(1′H)-pyrimidin]-2′(3′H)-one hydrochloride Non-specific binding was estimated in the presence of 10 μM WB-4101 (2-(2,6-Dimethoxyphenoxyethyl)aminoethyl-1,4-benzodioxane hydrochloride). Receptor proteins were filtered and washed, the filters were then counted to determine [^3H]MK-912 specifically bound. Compounds were screened at 1 μM or lower, using 1% DMSO as vehicle. Compounds were tested in this biochemical assay and percent inhibition of specific binding was determined. Biochemical assay results are presented as the percent inhibition of specific binding in Table 2.

| SMILES | inhibition at 0.1 µM [1] [%] | inhibition at 0.1 µM [2] [%] | inhibition at 0.1 µM [3] [%] | inhibition at 0.1 µM [4] [%] |
| --- | --- | --- | --- | --- |
| Cc1ccc2c(c1)c1c(n2-c2cccc(-c3ccc4c(ccn4C)c3)c2)CCN(C)C1 [Compound 53, 2,8-dimethyl-5-(3-(1-methyl-1H-indol-5-yl)phenyl)-2,3,4,5-tetrahydro-1H-pyrido[4,3-b]indole] | 8 | 15 | 0 | 24 |
| Cc1ccc2c(c1)c1c(n2-c2ccccc2-c2cnc(N(C)C)nc2)CCN(C)C1 [Compound 31] | 36 | 67 | 80 | 74 |
| CNC(=O)c1cc(-n2c3c(c4cc(C)ccc42)CN(C)CC3)cs1 [Compound No. 78] | 8 | 86 | 21 | 63 |
| Cc1ccc2c(c1)c1c(n2-c2ccsc2)CCN(C)C1 [Compound 14, 2,8-dimethyl-5-thiophen-3-yl-2,3,4,5-tetrahydro-1H-pyrido[4,3-b]indole] | 38 | 51 | 20 | 23 |
| Cc1ccc2c(c1)c1c(n2-c2ccccc2-c2ccc(F)nc2)CCN(C)C1 [Compound No. 84, 5-(2-(6-fluoropyridin-3-yl)phenyl)-2,8-dimethyl-2,3,4,5-tetrahydro-1H-pyrido[4,3-b]indole] | 54 | 89 | 58 | 68 |
| Cc1ccc2c(c1)c1c(n2-c2ccccc2-c2cccc3[nH]ncc23)CCN(C)C1 [Compound No. 105, 5-(2-(1H-indazol-4-yl)phenyl)-2,8-dimethyl-2,3,4,5-tetrahydro-1H-pyrido[4,3-b]indole] | 71 | 84 | 65 | 79 |
| Cc1csc(-c2ccccc2-n2c3c(c4cc(C)ccc42)CN(C)CC3)c1 [Compound 36] | 13 | 79 | 26 | 90 |
| Cc1ccc2c(c1)c1c(n2-c2ccc(-c3ccncc3)cn2)CCN(C)C1 [Compound No. 132, 5-(3,4′-bipyridin-6-yl)-2,8-dimethyl-2,3,4,5-tetrahydro-1H-pyrido[4,3-b]indole] | 33 | 69 | 28 | 17 |
| Cc1ccc2c(c1)c1c(n2-c2cccc(-c3cc4ccccc4s3)c2)CCN(C)C1 [Compound 51, 5-(3-(benzo[b]thiophen-2-yl)phenyl)-2,8-dimethyl-2,3,4,5-tetrahydro-1H-pyrido[4,3-b]indole] | 10 | 7 | 12 | 27 |
| Cc1ccc2c(c1)c1c(n2-c2ccc(-c3ccc(C)nc3)cn2)CCN(C)C1 [Compound No. 156, 2,8-dimethyl-5-(6′-methyl-3,3′-bipyridin-6-yl)-2,3,4,5-tetrahydro-1H-pyrido[4,3-b]indole] | 78 | 78 | 69 | 40 |
| Cc1ccc2c(c1)c1c(n2-c2cccc(-c3ccc(S(N)(=O)=O)cc3)c2)CCN(C)C1 [Compound No. 158, 3′-(2,8-dimethyl-3,4-dihydro-1H-pyrido[4,3-b]indol-5(2H)-yl)biphenyl-4-sulfonamide] | 7 | 60 | 14 | 73 |
| Cc1ccc2c(c1)c1c(n2-c2cccc(-c3ccc4[nH]cnc4c3)c2)CCN(C)C1 [Compound 54, 5-(3-(1H-benzo[d]imidazol-5-yl)phenyl)-2,8-dimethyl-2,3,4,5-tetrahydro-1H-pyrido[4,3-b]indole] | 8 | 3 | -3 | 23 |
| Cc1ccc2c(c1)c1c(n2-c2ccc(-c3ccc4c(ccn4C)c3)cn2)CCN(C)C1 [Compound No. 136, 2,8-dimethyl-5-(5-(1-methyl-1H-indol-5-yl)pyridin-2-yl)-2,3,4,5-tetrahydro-1H-pyrido[4,3-b]indole] | 70 | 105 | 59 | 59 |
